From patent US8895568B2, “Compositions comprising substituted pteridines as agrochemicals” (Dow AgroSciences LLC, priority 2009, dated 2014) come the findings set out here.

SMILES strings stand for the structures.

Type in all cases: in vivo
Experiment [1] has as its system Puccinia recondita tritici. Description: Leaf Rust of Wheat (PUCCRT), foliar spray, percent disease control. To be noted: tested at 8.3 ppm. The method, then: The activity of the compounds as effective fungicides was determined by applying the compounds to plants and observing control of fungal disease. The compounds were formulated at 200 ppm in 10 vol. % acetone plus 90 vol. % Triton X water (deionized water 99.99 wt %+0.01 wt % Triton X100), giving a “formulated test compound.” In a few cases, compounds were formulated at 75 or 8.3 ppm rather than 200 ppm in 10 vol. % acetone plus 90 vol. % Triton X water (deionized water 99.99 wt. %+0.01 wt. % Triton X100), giving a “formulated test compound.” Formulated test compounds were applied to plants using a turn table sprayer fitted with two opposing air atomization nozzles which delivered approximately 1500 L/ha of spray volume. All plants were inoculated with spores of the fungus the day after treatment, then incubated in an environment conducive to disease development. Disease severity was evaluated 4 to 15 days later, depending on the disease and the speed of disease development. The following experiments were performed in the laboratory to determine the fungicidal efficacy of the compounds of the invention. […] Each pot contained 3-8 seedlings. These plants were sprayed until wet with the formulated test compounds. On the following day, the leaves were inoculated with an aqueous spore suspension of Puccinia recondita tritici and the plants were kept in high humidity overnight to permit spores to germinate and infect the leaf. The plants were then transferred to a greenhouse until disease developed on untreated control plants. […] The effectiveness of the test compounds at controlling disease when sprayed on leaves was determined by assessing the severity of disease on treated plants, then converting the severity to percent control based on the level of disease on untreated, inoculated plants. Data are the level (in percent) at which the given disease was controlled when the given compound was applied to the foliage of the plants at 200 ppm. In a few cases (noted in the table) the compound was applied to the plants at 75 ppm or 8.3 ppm.

For the next experiment, the system named is Leptosphaeria nodorum. Put plainly: Glume Blotch of Wheat (LEPTNO), foliar spray, percent disease control. To be noted: Parastagonospora nodorum, tested at 75 ppm. On the procedure: The activity of the compounds as effective fungicides was determined by applying the compounds to plants and observing control of fungal disease. The compounds were formulated at 200 ppm in 10 vol. % acetone plus 90 vol. % Triton X water (deionized water 99.99 wt %+0.01 wt % Triton X100), giving a “formulated test compound.” In a few cases, compounds were formulated at 75 or 8.3 ppm rather than 200 ppm in 10 vol. % acetone plus 90 vol. % Triton X water (deionized water 99.99 wt. %+0.01 wt. % Triton X100), giving a “formulated test compound.” Formulated test compounds were applied to plants using a turn table sprayer fitted with two opposing air atomization nozzles which delivered approximately 1500 L/ha of spray volume. All plants were inoculated with spores of the fungus the day after treatment, then incubated in an environment conducive to disease development. Disease severity was evaluated 4 to 15 days later, depending on the disease and the speed of disease development. The following experiments were performed in the laboratory to determine the fungicidal efficacy of the compounds of the invention. […] Each pot contained 3-20 seedlings. These plants were sprayed until wet with the formulated test compound. On the following day, the leaves were inoculated with an aqueous spore suspension of Leptosphaeria nodorum and the plants were kept in high humidity (one day in a dark dew chamber followed by four days in a lighted dew chamber) to permit spores to germinate and infect the leaf. The plants were then transferred to a greenhouse until disease developed on untreated control plants. […] The effectiveness of the test compounds at controlling disease when sprayed on leaves was determined by assessing the severity of disease on treated plants, then converting the severity to percent control based on the level of disease on untreated, inoculated plants. Data are the level (in percent) at which the given disease was controlled when the given compound was applied to the foliage of the plants at 200 ppm. In a few cases (noted in the table) the compound was applied to the plants at 75 ppm or 8.3 ppm.

A further experiment concerns Magnaporthe grisea. Description: whole plant or invertebrate. The settings on record: Pyricularia oryzae, foliar, read-out: PYRIOR percent control.
Experiment [2] relates to DROSME, AEDSAE, LAPHEG, or HELIVI. Put plainly: Insecticidal activity, active if any of DROSME, AEDSAE, LAPHEG or HELIVI was controlled at 80% or more. To be noted: read-out: >80% mortality on any insect species @ 4000 ppm.
The test system of another experiment is Cochliobolus sativus. Description: Spot Blotch of Wheat (COCHSA), foliar spray, percent disease control. The settings on record: Bipolaris sorokiniana; foliar spray; read-out: COCHSA percent control.
The test system of experiment [3] is Pseudoperonospora cubensis. Put plainly: Cucumber Downy Mildew (PSPECU), foliar spray, percent disease control. To be noted: foliar spray, read-out: PSPECU percent control.
The next experiment relates to Colletotricum lagenarium. Description: Cucumber Anthracnose (COLLLA), foliar spray, percent disease control. The settings on record: foliar spray.

Take `Clc1csc(Oc2ccc(CCNc3ncnc4nccnc34)cc2)n1` [Compound 31]: the pest or weed control at 8.3 ppm lay in the range of 50 to 79% in experiment [1] and 80 to 100% in the experiment with Magnaporthe grisea. This molecule also showed a pest or weed control at 75 ppm in the experiment with Leptosphaeria nodorum of 0 to 49%.
The matching figures for `N#Cc1c(Cl)cncc1Oc1cccc(CCNc2ncnc3nccnc23)c1` [Compound 70]: 50 to 79%, 50 to 79% and 0 to 49%.
The matching figures for `Cc1ccnc(Cl)c1Oc1ccc(CCNc2ncnc3nccnc23)cc1` [Compound 98]: 50 to 79%, 50 to 79% and 0 to 49%.
In experiment [1], `FC(F)(F)c1ccnc(Oc2ccc(CCOc3ncnc4nccnc34)cc2)c1` [Compound 206, 4-{2-[4-(4-Trifluoromethylpyridin-2-yloxy)-phenyl]-ethoxy}-pteridine] registered a pest or weed control at 8.3 ppm of 0 to 49%. For the same molecule, in the experiment on Leptosphaeria nodorum, the pest or weed control at 75 ppm lay within 0 to 49%.
For `COc1ccc(CCNc2ncnc3nccnc23)cc1` [Compound 45], the pest or weed control at 8.3 ppm fell in the range of 50 to 79% in experiment [1] and 80 to 100% in the experiment with Magnaporthe grisea. The same molecule returned a pest or weed control at 75 ppm in the experiment with Leptosphaeria nodorum of 0 to 49%.
Turning to `Cc1nc(NCCc2ccc(Oc3cc(C(F)(F)F)ccn3)cc2)c2nc(C)c(C)nc2n1` [Compound 226], the pest or weed control at 8.3 ppm (in experiment [1]; with Magnaporthe grisea) was 0 to 49% each time. For the same molecule, in the experiment on Leptosphaeria nodorum, the pest or weed control at 75 ppm is 0 to 49%.
For `Fc1cc(Oc2ccc(C(F)(F)F)cn2)ccc1CCNc1ncnc2nccnc12` [Compound 105], the pest or weed control at 8.3 ppm (in experiment [1]; in the experiment on Magnaporthe grisea) was 80 to 100% throughout. Besides, the pest or weed control at 75 ppm in the experiment on Leptosphaeria nodorum is 80 to 100%.
Consider `Fc1cnc(C(F)(F)F)c(F)c1Oc1ccc(CCNc2ncnc3ncc(Cl)nc23)cc1` [Compound 117], for which the pest or weed control at 8.3 ppm in experiment [1] fell in the range of 50 to 79%; with Magnaporthe grisea, 80 to 100%. In addition, the pest or weed control at 4000 ppm in experiment [2] is > 80%. This molecule returned a pest or weed control at 75 ppm in the experiment on Leptosphaeria nodorum of 50 to 79%.
For the molecule `COc1ccc2c(c1)CC(Nc1ncnc3ncc(C)nc13)C2` (stereo not shown) [Compound 116], the pest or weed control at 8.3 ppm lay in the range of 0 to 49% in experiment [1] and 50 to 79% in the experiment on Magnaporthe grisea. The pest or weed control at 4000 ppm in experiment [2] is > 80%. In the experiment with Leptosphaeria nodorum, this molecule had a pest or weed control at 75 ppm of 0 to 49%.
For the molecule `FC(F)(F)c1cnc2nc(Oc3ccc(CCNc4ncnc5nccnc45)cc3)sc2c1` [Compound 32], the pest or weed control at 8.3 ppm (in experiment [1]; in the experiment with Magnaporthe grisea) was 50 to 79% each time. For the same molecule, the pest or weed control at 75 ppm with Leptosphaeria nodorum was in the range of 0 to 49%.
`FC(F)(F)c1ccnc(Oc2ccc(CCNc3ncnc4nccnc34)cc2C(F)(F)F)c1` [Compound 227] had a pest or weed control at 8.3 ppm in experiment [1] of 80 to 100%. This molecule had a pest or weed control at 75 ppm in the experiment with Leptosphaeria nodorum of 80 to 100%.
As to `Cc1ccnc(Oc2ccc(CCNc3ncnc4nccnc34)cc2)c1F` [Compound 99], the pest or weed control at 8.3 ppm (in experiment [1]; in the experiment on Magnaporthe grisea) was 80 to 100% in each case. The same molecule gave a pest or weed control at 75 ppm with Leptosphaeria nodorum of 50 to 79%.
Regarding `CC(C)(C)OC(=O)c1ccc(Oc2ccc(CCNc3ncnc4nccnc34)cc2)cc1` [Compound 154], the pest or weed control at 8.3 ppm (in experiment [1]; with Magnaporthe grisea) was 80 to 100% throughout. The molecule also showed a pest or weed control at 75 ppm with Leptosphaeria nodorum of 80 to 100%.
As for `COC(=O)c1cc(CCNc2ncnc3nccnc23)ccc1Oc1cc(C(F)(F)F)ccn1` [Compound 213, 5-[2-(Pteridin-4-ylamino)-ethyl]-2-(4-trifluoromethyl-pyridin-2-yloxy)-benzoic acid, methyl ester], the pest or weed control at 4000 ppm in experiment [2] was > 80%. For the same molecule, the pest or weed control at 200 µg/mL in the experiment with Cochliobolus sativus lay within 0 to 49%; in experiment [3], 80 to 100%; in the experiment with Colletotricum lagenarium, 0 to 49%.
